Test results as given in patent US20120135081A1, “HYDROPHOBINS FOR DISPERSING ACTIVE AGENTS” (TEKNOLOGIAN TUTKIMUSKESKUS VTT, priority 2009, published 2012).

Assay: Particle size and morphology by transmission electron microscopy (TEM)
Type: physicochemical
Experimental: Precipitation of beclomethasone was carried out by modifying a method published earlier, where the drug was crystallised either in pure water or in the presence of a surfactant, Tween-80 (Wang et al. 2007^xi, Matteucci et al., 2006^xii). 34.8 mM beclomethasone dipropionate (BDB, MW 521.1) solution was prepared by dissolving the BDP in methanol. 0.5 ml of BDP solution was poured into 20 ml of pure deionized water with 0-0.15 wt-% (0-208.3 μM) HFBII. The resulting aqueous solution had 0.05 wt-% BDP. Both solutions were filtered with 0.2 μm syringe filter to remove possible impurities prior to use. The receiving liquid was stirred vigorously with a magnetic stirrer and temperature of the solution was controlled by keeping the sample in an ice bath or in room temperature during the precipitation. The precipitate was observed as a turbid solution immediately after BDP addition.
Transmission electron microscopy (TEM): 20 min after precipitation 20 μl of the nanoparticle dispersions were dried on formvar film-coated copper grids with mesh size 300.
The synthesis was done as in the earlier section, except that the drug used was itraconazole. Mass ratios of 2:1, 1:1 and 1:2 of HFBII:itraconazole were tested. TEM was used to study the size and morphology of the particles. […] Monodispersity increased with increasing HFBII amount. […]

crystals formed (size and habit) (precipitated from methanol into water without HFBII): a few micrometer long needles
particle size (precipitated with HFBII at room temperature, TEM): several micrometers
Structure (SMILES): CCC(=O)OCC(=O)[C@@]1(OC(=O)CC)[C@@H](C)C[C@H]2[C@@H]3CCC4=CC(=O)C=C[C@]4(C)[C@@]3(Cl)[C@@H](O)C[C@@]21C [BDP, beclomethasone dipropionate]
